Reference: patent publication EP0652009A1, “Identification and use of protease inhibitors” (ELI LILLY AND COMPANY, priority 1993, dated 1995)
pKi: −log10 of the molar value.

Target: Cathepsin D (Homo sapiens, UniProt P07339)
Assay: Assay 3: cathepsin D inhibition activity (non-cellular assay, chromogenic substrate)
Type: biochemical
Set-up: Frozen human placental tissue was thawed and homogenized; from tissue; host or cells: human placenta
Conditions: cathepsin D from human placental tissue; for pKi: chromogenic substrate, pH 3.7, 37°C
Method: A third non-cellular assay for determining in vitro aspartyl protease inhibitory activity is generally described in Jupp, R.A. et al., (1990) Biochem. J., 265:871-878 and Rao et al., J. Med. Chem. (1993), in press. The assay is carried out by incubating a test compound with a suitable aspartyl protease, such as cathepsin D, in the presence of a chromogenic substrate. The inhibition constant, Ki, value may then be determined by quantifying the competitive inhibition of the hydrolysis of the chromogenic substrate. A variety of chromogenic substrates that are useful for assaying aspartyl protease activity are discussed in Dunn, et al., (1986) Biochem. J., 237:899-906. A preferred chromogenic substrate for a cathepsin D assay is disclosed in Scarborough, P.E. et al., Protein Science, (1993), 2:264-276.
Concentrations of substrate solutions and cleavage products may be verified using amino acid analysis. The enzyme preparations may be titrated with a tightly binding inhibitor to quantitate the active concentration of the enzyme. Enzyme concentrations are typically in the range of from 1-6 nM. Stock solutions of the test compound are prepared at concentrations ranging from 1.0 to 5.0 mg/mL, and then 50-100 µL portions of these stock solutions may be further diluted to a concentration in the range of 5 to 300 µM for rate determinations.
[…] Then, the test compounds are assayed over a concentration range of, for example, 5 to 300 µM for rate determinations.
A decrease in absorbance in the range of 284-324 nm may be monitored using a spectrophotometer. Absorbance readings are typically taken at various timepoints. The initial velocities are then plotted versus the initial substrate concentration. […] Estimates of Ki may then be determined using the Dixon construction. Dixon, M., (1953) Biochem J., 55:170-171.
If the ratio of the total active enzyme concentration to the estimated Ki value ([E]t/Ki) is less than 0.2, then the precise Ki value may be computed by using a non-linear curve fitting program based on the equation: v= Vmax [S]/[S] + Km (1 + [I]/Ki ) [formula] where v is the initial rate, [S] is the initial substrate concentration, [I] is the inhibitor concentration and Km and Ki are defined above. […] P.J.F., (1972) Biochem J., 127:321-333. This Assay is exemplfied in Assay 3.
The homogenate was centrifuged at 10,000 rpm for 30 minutes in a Sorvall GSA rotor. The supernatant was adjusted to pH 3.7 using 5.7N HCl and then sodium acetate was added to a concentration of 0.1M. The resultant mixture was incubated for 30 minutes at 0°C, resulting in the formation of a precipitate. This precipitate was removed by centrifugation (30 minutes, 10,000 rpm). The acidic supernatent was applied to a chromatography column (pepstatinyl agarose equilibrated with 0.1M sodium acetate, pH 3.5, 0.1% Brij 35, and 1M NaCl), washed until the OD₂₈₀ of the effluent returned to baseline, and then eluted with 50mM Tris-HCl, pH 8.6, 0.1% Brij 35, and 1M NaCl. The eluent was dialyzed against 10mM sodium phosphate, pH 7.0, 0.1% Brij 35, and 0.1M NaCl, and then applied to a 1 mL DEAE-Sephacel column equilibrated with the same buffer. Cathepsin D was recovered in the breakthrough fraction.
The enzyme mixture (125 µL buffer (0.1M sodium formate at pH 3.7), 1 µL of a 1mM solution of test compound, 4 µL of DMSO, enzyme and water to provide a total volume of 230 µL) was vortexed and prewarmed for four minutes before the addition of the chromogenic substrate. After warming, the enzyme mixture was added to 20 µL of a […] dilution of substrate solution. A control reaction mixture was similarly prepared without the addition of the test compound. The percent of inhibition of the initial rate of reaction in the presence of a particular concentration of test compound (i.e. 4 µM) may be determined for the test compound by monitoring the reaction mixture in parallel to the control reaction. […]

Sequence of Cathepsin D (P07339 169-412 limits assumed): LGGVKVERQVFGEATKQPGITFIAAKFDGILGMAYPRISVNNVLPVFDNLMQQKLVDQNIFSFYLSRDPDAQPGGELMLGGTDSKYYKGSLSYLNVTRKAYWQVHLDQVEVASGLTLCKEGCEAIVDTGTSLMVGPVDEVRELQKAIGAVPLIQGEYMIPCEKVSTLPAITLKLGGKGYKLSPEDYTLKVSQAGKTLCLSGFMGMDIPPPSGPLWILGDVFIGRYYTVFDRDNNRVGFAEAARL
Sequence of Cathepsin D (P07339 65-162 limits assumed): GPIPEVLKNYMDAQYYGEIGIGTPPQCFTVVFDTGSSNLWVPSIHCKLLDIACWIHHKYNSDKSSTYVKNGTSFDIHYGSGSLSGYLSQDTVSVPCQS

| SMILES | pKi | % inhibition at 4µ M (4 µM test compound, inhibition of initial rate relative to control) [%] |
| --- | --- | --- |
| Cc1cccc2ccc(C(=O)N[C@@H](CC(N)=O)C(=O)N[C@@H](Cc3ccccc3)[C@H](O)Cc3ccccc3C(=O)NC(C)(C)C)nc12 [Example 9, [1S-(1R*,4R*,5S*)]-N-(1-(2-Amino-2-oxoethyl)-2-oxo-3-aza-4-phenylmethyl-5-hydroxy-6-(2-(1-t-butylamino-1-oxomethyl)phenyl)hexyl)-8-methylquinolin-2-yl carboxamide] | 6.09 |  |
| CC(C)C(NC(=O)C(Cc1cccc2ccccc12)NC(=O)OC(C)(C)C)C(=O)NC(Cc1ccccc1)C(O)Cc1ccccc1C(=O)NC(C)(C)C (stereo not drawn) [Example 23, [2R-(2R*,3S*,6S*,9S*)]-N-t-Butyl-2-[2-hydroxy-3-phenylmethyl-4,7-diaza-5,8-dioxo-6-(1-methylethyl)-9-N(t-butoxycarbonyl)amino-10-naphth-1-yl]decyl benzamide] | 7.14 |  |
| Cc1ccc(C(=O)C2NCCc3ccccc32)cc1C(=O)N[C@@H](Cc1ccccc1)[C@H](O)CN1C[C@H]2CCCC[C@H]2C[C@H]1C(=O)NC(C)(C)C (relative stereo) [Example 30, [3S-(3R*,4aR*,8aR*,2'S*,3'R*)]-2-[2'-Hydroxy-3'-phenylmethyl-4'-aza-5'-oxo-5'-(3''-[1''',2''',3''',4'''-tetrahydroisoquinolin-1'''-ylcarbonyl]-6''-methyl)phenyl]pentyl-decahydroisoquinoline-3-N-t-butylcarboxamide] |  | 28 |
| CC(C)C(NC(=O)C(Cc1cccc2ccccc12)NC(=O)OC(C)(C)C)C(=O)NC(Cc1ccccc1)C(O)Cc1ccccc1C(=O)NC(C)(C)C (stereo not drawn) [Example 24, [2R-(2R*,3S*,6S*,9R*)]-N-t-Butyl-2-[2-hydroxy-3-phenylmethyl-4,7-diaza-5,8-dioxo-6-(1-methylethyl)-9-N(t-butoxycarbonyl)amino-10-naphth-1-yl]decyl benzamide] | 7.38 |  |
